Measurements taken from US8119633B2, “Substituted sulfonamide compounds” (Gruenenthal GmbH, priority 2007, dated 2012).

What was measured:
[1] = biological target: T1, human bradykinin receptor 1 (B1R) (Homo sapiens, UniProt P46663); test: Functional study on the bradykinin receptor 1 (B1R), human: FLIPR Ca2+ influx assay; assay type: cell-based; conditions: test substance 10 μM; CHO K1 cells transfected with human B1R; Lys-Des-Arg9-bradykinin at EC80; Ca2+ influx (Fluo-4, FLIPR); read-out: B1R antagonism, human [10 μM] % inhibition
T1 construct: expressed in transfected cells; host or cells: CHO K1 cells
T1 sequence (P46663 1-353): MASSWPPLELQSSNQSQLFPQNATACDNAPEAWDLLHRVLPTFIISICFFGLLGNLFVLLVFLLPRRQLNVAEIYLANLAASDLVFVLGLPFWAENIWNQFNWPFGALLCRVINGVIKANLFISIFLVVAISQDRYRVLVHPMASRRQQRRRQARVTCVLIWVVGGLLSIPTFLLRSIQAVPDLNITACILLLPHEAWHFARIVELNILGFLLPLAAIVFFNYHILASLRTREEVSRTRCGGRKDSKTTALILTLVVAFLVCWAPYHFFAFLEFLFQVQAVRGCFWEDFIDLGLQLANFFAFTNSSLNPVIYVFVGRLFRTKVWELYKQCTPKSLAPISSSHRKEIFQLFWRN
Outline: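 CHO K1 cells stably expressing human B1R were loaded with Fluo-4, and Ca2+ fluorescence was read on FLIPR (ex 488/em 540 nm). Compound was added first (10 μM for % activation against Lys-Des-Arg9-bradykinin ≥0.5 nM). After 10-20 min, Lys-Des-Arg9-bradykinin was added at EC80 for % inhibition; IC50 came from concentration series, n=2-3, N≥2.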

[2] = biological target: T2, bradykinin receptor 1 (B1R) of the rat (Rattus norvegicus, UniProt P97583); test: Functional study on the bradykinin receptor 1 (B1R), rat: FLIPR Ca2+ influx assay; assay type: cell-based; conditions: test substance 10 μM; CHO K1 cells transfected with rat B1R; Des-Arg9-bradykinin at EC80; Ca2+ influx (Fluo-4, FLIPR); read-out: B1R antagonism, rat [10 μM] % inhibition
T2 construct: expressed in transfected cells; host or cells: CHO K1 cells
T2 sequence (P97583 1-337): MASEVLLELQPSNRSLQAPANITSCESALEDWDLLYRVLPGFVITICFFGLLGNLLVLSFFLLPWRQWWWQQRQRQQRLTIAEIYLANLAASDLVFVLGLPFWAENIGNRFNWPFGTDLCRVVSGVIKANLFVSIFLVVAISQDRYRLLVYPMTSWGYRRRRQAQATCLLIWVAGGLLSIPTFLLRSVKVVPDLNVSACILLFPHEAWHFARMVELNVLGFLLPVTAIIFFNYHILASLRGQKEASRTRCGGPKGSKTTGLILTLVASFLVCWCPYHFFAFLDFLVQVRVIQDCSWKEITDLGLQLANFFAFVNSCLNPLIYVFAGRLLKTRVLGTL
Outline: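 CHO K1 cells stably expressing rat B1R, Fluo-4-loaded, read on FLIPR (ex 488/em 540 nm, peak fluorescence). Test substances added first (agonism vs 10 μM Des-Arg9-bradykinin), then after 10-20 min Des-Arg9-bradykinin at EC80; % inhibition and IC50 from concentration series, n=2-3, N≥2.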

[3] = biological target: T3, human μ-opiate receptor (Homo sapiens, UniProt P35372); test: Affinity for the human μ-opiate receptor ([3H]-naloxone displacement, SPA); conditions: test substance 1 μmol/l; inhibition of specific [3H]-naloxone binding; CHO-K1 receptor membrane preparation; read-out: μ-Opioid receptor [1 μM] % inhibition
T3 construct: purchased PerkinElmer Life Sciences, Zaventem, Belgium RB-HOM; host or cells: CHO-K1 cells (membrane preparation)
T3 sequence (P35372 whole entry): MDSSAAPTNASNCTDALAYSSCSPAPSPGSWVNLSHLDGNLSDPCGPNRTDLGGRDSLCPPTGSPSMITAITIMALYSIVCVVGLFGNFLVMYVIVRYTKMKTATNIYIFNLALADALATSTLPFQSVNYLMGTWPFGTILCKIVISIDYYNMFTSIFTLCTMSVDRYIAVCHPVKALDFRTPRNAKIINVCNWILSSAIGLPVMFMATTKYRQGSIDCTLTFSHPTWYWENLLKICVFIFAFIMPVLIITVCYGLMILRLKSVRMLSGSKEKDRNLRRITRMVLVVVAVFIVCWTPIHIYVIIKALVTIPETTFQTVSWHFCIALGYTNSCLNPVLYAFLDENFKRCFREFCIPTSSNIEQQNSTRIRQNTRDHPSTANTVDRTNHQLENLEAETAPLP
Experimental: Studies of the Effectiveness of the Compounds According to the Invention Method for determining the affinity for the human μ-opiate receptor
The receptor affinity for the human μ-opiate receptor is determined in a homogeneous batch on microtitre plates. To this end, serial dilutions of the substances to be tested are incubated for 90 minutes at room temperature with a receptor membrane preparation (15-40 μg of protein/250 μl of incubation batch) of CHO-K1 cells, which express the human μ-opiate receptor (RB-HOM receptor membrane preparation from PerkinElmer Life Sciences, Zaventem, Belgium), in the presence of 1 nmol/l of the radioactive ligand [^3H]-naloxone (NET719, PerkinElmer Life Sciences, Zaventem, Belgium) and 1 mg of WGA-SPA beads (wheatgerm agglutinin SPA beads from Amersham/Pharmacia, Freiburg, Germany) in a total volume of 250 μl. The incubation buffer used is 50 mmol/l of Tris-HCl supplemented with 0.06 wt. % bovine serum albumin. In order to determine non-specific binding, 100 μmol/l of naloxone is additionally added. When the ninety-minute incubation time has ended, the microtitre plates are centrifuged off for 20 minutes at 1000 g and the radioactivity is measured in a β-counter (Microbeta-Trilux, PerkinElmer Wallac, Freiburg, Germany). The percentage displacement of the radioactive ligand from its binding to the human μ-opiate receptor at a concentration of the test substances of 1 μmol/l is determined and stated as the percentage inhibition of specific binding. On the basis of the percentage displacement by different concentrations of the test substances, IC50 inhibitory concentrations, which effect 50% displacement of the radioactive ligand, are calculated. Ki values for the test substances are obtained by conversion by means of the Cheng-Prusoff equation.

| SMILES | inhibition at 10 µM [1] [%] | inhibition at 10 µM [2] [%] | inhibition at 1 µM [3] [%] |
| --- | --- | --- | --- |
| CN(C)C(c1ccccc1)C1CCC(NC(=O)CCCCN(C)S(=O)(=O)c2c(Cl)cc(Cl)cc2Cl)CC1 (stereo not drawn) [Example 5, N—(4-((Dimethylamino)(phenyl)methyl)cyclohexyl)-5-(2,4,6-trichloro-N-methylphenylsulfonamido)pentanamide] | 101 | 60 | 89 |
| CN(CCCCC(=O)NC1CCC(C(c2ccccc2)N2CCCCC2)CC1)S(=O)(=O)c1c(Cl)cc(Cl)cc1Cl (stereo not drawn) [Example 6, N—(4-(Phenyl(piperidin-1-yl)methyl)cyclohexyl)-5-(2,4,6-trichloro-N-methylphenylsulfonamido)pentanamide] | 75.1 | 41 | 29 |
| CN(C)C(c1ccccc1)C1CCC(CNC(=O)CCCCN(C)S(=O)(=O)c2c(Cl)cc(Cl)cc2Cl)CC1 (stereo not drawn) [Example 7, N—((4-((Dimethylamino)(phenyl)methyl)cyclohexyl)methyl)-5-(2,4,6-trichloro-N -methylphenylsulfonamido)pentanamide] | 102 | 59 | 96 |
| CN(C)C(c1ccccc1)C1CCC(CNC(=O)CC2CCCCN2S(=O)(=O)c2cccc(C(F)(F)F)c2)CC1 (stereo not drawn) [Example 8, N—((4-((Dimethylamino)(phenyl)methyl)cyclohexyl)methyl)-2-(1-(3-(trifluoromethyl)phenylsulfonyl)piperidin-2-yl)acetamide] | 71.4 | 9 | 94 |
| O=C(CC1C(=O)Nc2ccccc2N1S(=O)(=O)c1ccc(Cl)c(Cl)c1)NC1CCC(C(c2ccccc2)N2CCOCC2)CC1 (stereo not drawn) [Example 54, 2-[1-(3,4-dichloro-benzenesulfonyl)-3-oxo-1,2,3,4-tetrahydro-quinoxalin-2-yl]-N-[4-(morpholin-4-yl-phenyl-methyl)-cyclohexyl]-acetamide] | 105 | 44 | 12 |
| O=C(CC1C(=O)NCCN1S(=O)(=O)c1ccc(Cl)cc1Cl)NCC1CCC(C(c2ccccc2)N2CCOCC2)CC1 (stereo not drawn) [Example 55, 2-[1-(2,4-dichloro-benzenesulfonyl)-3-oxo-piperazin-2-yl]-N-[4-(morpholin-4-yl-phenyl-methyl)-cyclohexylmethyl]-acetamide] | 103 | 26 | 24 |
| O=C(CC1C(=O)NCCN1S(=O)(=O)c1ccc(Cl)cc1Cl)NCC1CCC(C(CCc2ccccc2)N2CCOCC2)CC1 (stereo not drawn) [Example 56, 2-[1-(2,4-dichloro-benzenesulfonyl)-3-oxo-piperazin-2-yl]-N-[4-(1-morpholin-4-yl-3-phenyl-propyl)-cyclohexylmethyl]-acetamide] | 104 | 20 | 11 |
| O=C(CC1C(=O)NCCN1S(=O)(=O)c1ccc(Cl)cc1Cl)NCC1CCC(C(CCc2ccccc2)N2CCCC2)CC1 (stereo not drawn) [Example 57, 2-[1-(2,4-dichloro-benzenesulfonyl)-3-oxo-piperazin-2-yl]-N-[4-(3-phenyl-1-pyrrolidin-1-yl-propyl)-cyclohexylmethyl]-acetamide] | 104 | 27 | 25 |
| O=C(CC1C(=O)NCCN1S(=O)(=O)c1ccc(Cl)cc1Cl)NCC1CCC(C(c2ccccc2)N2CCCC2)CC1 (stereo not drawn) [Example 58, 2-[1-(2,4-dichloro-benzenesulfonyl)-3-oxo-piperazin-2-yl]-N-[4-(phenyl-pyrrolidin-1-yl-methyl)-cyclohexylmethyl]-acetamide] | 104 | 11 | 70 |
| O=C(CC1C(=O)NCCN1S(=O)(=O)c1ccc(Cl)cc1Cl)NC1CCC(C(CCc2ccccc2)N2CCCCC2)CC1 (stereo not drawn) [Example 59, 2-[1-(2,4-dichloro-benzenesulfonyl)-3-oxo-piperazin-2-yl]-N-[4-(3-phenyl-1-piperidin-1-yl-propyl)-cyclohexyl]-acetamide] | 104 | 27 | 61 |
| O=C(CC1C(=O)NCCN1S(=O)(=O)c1ccc(Cl)cc1Cl)NC1CCC(C(CCc2ccccc2)N2CCOCC2)CC1 (stereo not drawn) [Example 60, 2-[1-(2,4-dichloro-benzenesulfonyl)-3-oxo-piperazin-2-yl]-N-[4-(1-morpholin-4-yl-3-phenyl-propyl)-cyclohexyl]-acetamide] | 104 | 8 | 54 |
| CN1CCN(C(c2ccccc2)C2CCC(NC(=O)CC3C(=O)NCCN3S(=O)(=O)c3ccc(Cl)cc3Cl)CC2)CC1 (stereo not drawn) [Example 61, 2-[1-(2,4-dichloro-benzenesulfonyl)-3-oxo-piperazin-2-yl]-N-{4-[(4-methyl-piperazin-1-yl)-phenyl-methyl]-cyclohexyl}-acetamide] | 104 | 39 | 34 |
| O=C1NCCN(S(=O)(=O)c2ccc(Cl)cc2Cl)C1CC(=O)N1CCCCC1C(Cc1ccccc1)N1CCOCC1 (stereo not drawn) [Example 63, 4-(2,4-dichlorophenylsulfonyl)-3-(2-(2-(1-morpholino-2-phenylethyl)piperidin-1-yl)-2-oxoethyl)piperazin-2-one] | 28.6 | -3 | 47 |
| O=C(CC1C(=O)Nc2ccccc2N1S(=O)(=O)c1ccc(Cl)c(Cl)c1)NCC1CCC(C(c2ccccc2)N2CCOCC2)CC1 (stereo not drawn) [Example 64, 2-[1-(3,4-dichloro-benzenesulfonyl)-3-oxo-1,2,3,4-tetrahydro-quinoxalin-2-yl]-N-[4-(morpholin-4-yl-phenyl-methyl)-cyclohexylmethyl]-acetamide] | 104 | 29 | 10 |
| O=C(CC1C(=O)Nc2ccccc2N1S(=O)(=O)c1ccc(Cl)c(Cl)c1)NCC1CCC(C(CCc2ccccc2)N2CCOCC2)CC1 (stereo not drawn) [Example 65, 2-[1-(3,4-dichloro-benzenesulfonyl)-3-oxo-1,2,3,4-tetrahydro-quinoxalin-2-yl]-N-[4-(1-morpholin-4-yl-3-phenyl-propyl)-cyclohexylmethyl]-acetamide] | 103 | 24 | 9 |
| O=C(CC1C(=O)Nc2ccccc2N1S(=O)(=O)c1ccc(Cl)c(Cl)c1)NCC1CCC(C(CCc2ccccc2)N2CCCC2)CC1 (stereo not drawn) [Example 66, 2-[1-(3,4-dichloro-benzenesulfonyl)-3-oxo-1,2,3,4-tetrahydro-quinoxalin-2-yl]-N-[4-(3-phenyl-1-pyrrolidin-1-yl-propyl)-cyclohexylmethyl]-acetamide] | 102 | 96 | 11 |
